In patent US5036071A, “Derivatives of purine” (Medivir AB, priority 1984, dated 1991):

Legend:
HSV-2 strain 91075 = experiment: Treatment of a systemic HSV-2 infection in mice (mortality); format: in vivo; conditions: oral; for Mortality (%) day 6 / Mortality (%) day 9 / Mortality (%) day 12 / Mortality (%) day 15: twice daily for ten days; for Mortality (%) day 6: day 6 post infection; for Mortality (%) day 9: day 9 post infection; for Mortality (%) day 12: day 12 post infection; for Mortality (%) day 15: day 15 post infection
Description: In the following the compound (R)-(+)-9-(3,4-dihydroxybutyl)guanine is denoted VIS 743, the compound (R)-2-amino-9-(3,4-dihydroxybutyl)purine is denoted VSA 305 and Herpes simplex type 2 virus is denoted HSV-2. Mice infected systemically with HSV-2 strain 91075 (10^4 pfu infected i.p.) were treated orally with VIS 743 or VSA 305 twice daily for ten days. Treatment started 1 hour post infection. Mortality was determined on several days post infection.

[1] = Plasma concentration of VIS 743 in mice after giving VIS 743 or VSA 305 orally; format: in vivo; conditions: 15 mg/kg p.o.
Description: Mice were given VIS 743 or VSA 305 p.o. Each compound was given in a dosage of 15 mg/kg. The plasma concentrations of VIS 743 were determined by analysis on HPLC, 30, 60, 90 and 120 min after dosage. Each concentration was determined as an average of results from two mice.

SMILES	Mortality (%) day 6 (HSV-2 strain 91075; 15 mg/kg)	Mortality (%) day 9 (HSV-2 strain 91075; 15 mg/kg)	Mortality (%) day 12 (HSV-2 strain 91075; 15 mg/kg)	Mortality (%) day 15 (HSV-2 strain 91075; 15 mg/kg)	effect of a low dose (15 mg/kg) compared with a high dose of VIS 743 (30 mg/kg) (HSV-2 strain 91075; VSA 305 15 mg/kg vs VIS 743 30 mg/kg)	biological transformation to VIS 743 [1]	Mortality (%) day 6 (HSV-2 strain 91075; 30 mg/kg)	Mortality (%) day 9 (HSV-2 strain 91075; 30 mg/kg)	Mortality (%) day 12 (HSV-2 strain 91075; 30 mg/kg)	Mortality (%) day 15 (HSV-2 strain 91075; 30 mg/kg)
Nc1ncc2ncn(CC[C@@H](O)CO)c2n1 [VSA 305, (R)-2-amino-9-(3,4-dihydroxybutyl)purine]	0%	45%	50%	53%	comparable	biologically transformed to VIS 743	–	–	–	–
Nc1nc2c(ncn2CC[C@@H](O)CO)c(=O)[nH]1 [VIS 743, (R)-(+)-9-(3,4-dihydroxybutyl)guanine]	40%	80%	100%	100%	–	–	0%	28%	45%	53%
